PubChem BioAssay (NCI)
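Five compound concentrations were applied to cells in 96-well plates for 48 hours; endpoints were derived by simple linear interpolation of the resulting dose-response curve. TGI denotes the concentration required for complete inhibition of growth.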

Legend:
Experiment in all cases: inhibition of tumour cell growth, NCI panel, 48 h
MOLT-4 leukemia = test system: MOLT-4 leukemia
SF-295 CNS = test system: SF-295 CNS
DMS 273 small cell lung = test system: DMS 273 small cell lung
KM20L2 colon = test system: KM20L2 colon
SNB-78 CNS = test system: SNB-78 CNS
LXFL 529 NSCLC = test system: LXFL 529 NSCLC
DMS 114 small cell lung = test system: DMS 114 small cell lung
XF 498 CNS = test system: XF 498 CNS
M19-MEL melanoma = test system: M19-MEL melanoma
DLD-1 colon = test system: DLD-1 colon
HCT-15 colon = test system: HCT-15 colon
NCI-H522 lung = test system: NCI-H522 lung
HOP-18 NSCLC = test system: HOP-18 NSCLC
RXF-631 renal = test system: RXF-631 renal

Row | Compound | TGI (MOLT-4 leukemia) [µM] | TGI (SF-295 CNS) [µM] | TGI (DMS 273 small cell lung) [µM] | TGI (KM20L2 colon) [µM] | TGI (SNB-78 CNS) [µM] | TGI (LXFL 529 NSCLC) [µM] | TGI (DMS 114 small cell lung) [µM] | TGI (XF 498 CNS) [µM] | TGI (M19-MEL melanoma) [µM] | TGI (DLD-1 colon) [µM] | TGI (HCT-15 colon) [µM] | TGI (NCI-H522 lung) [µM] | TGI (HOP-18 NSCLC) [µM] | TGI (RXF-631 renal) [µM]
1 | NC(CCCCN=Cc1nc(-c2ccccc2)oc1O)C(=O)O (centres undefined) | > 100 | > 100 | > 100 | > 100 | > 100 | > 100 | > 100 | > 100 | > 100 | > 100 | > 100 | > 100 |  | 
2 | Cc1ccc([N+](=O)[O-])cc1NC(=O)C(=O)Cc1cc(=O)oc2cc(O)ccc12 | > 100 | > 100 |  | > 100 | > 100 | > 100 | 36.3 | > 100 | > 100 | > 100 | > 100 | > 100 | > 100 | 
3 | COc1cc2c(oc(=O)c3cc4ccoc4c(OC)c32)c2cccc(O)c12 | > 100 | > 100 | > 100 | > 100 | > 100 | > 100 | > 100 | > 100 | > 100 | > 100 | > 100 | > 100 | > 100 | 
4 | CC(C)C(Sc1nc(-c2ccccc2)c(-c2ccccc2)[nH]1)C(=O)N/N=C/c1ccc([N+](=O)[O-])cc1 (centres undefined) | 10.3 | 33.9 | 27.5 | 32.9 | > 100 | 33.8 | 68.2 | 41 | 23.8 | > 100 | 36.5 | 32.4 |  | 
5 | Cc1ccc(S(=O)(=O)N/N=C/c2oc(-c3ccccc3Cl)c(-c3ccccc3Cl)c2[N+](=O)[O-])cc1 | > 100 | > 100 |  | 37.9 |  |  | 76.7 |  | 65 | 47.9 |  | 26 |  | 60.3
6 | CCOP(=O)(OCC)/C(C#N)=C/c1ccc[nH]1 | > 100 | > 100 | > 100 | > 100 | > 100 | > 100 | > 100 |  | > 100 | > 100 | > 100 | > 100 | > 100 | 
7 | COc1ccc(CC2NCCc3cc(OC)c(OC)cc32)cc1 (centres undefined) | > 100 | > 100 | > 100 | > 100 | > 100 | > 100 | > 100 | > 100 | > 100 | > 100 | > 100 | > 100 | > 100 | > 100
8 | CC1CC(=O)C(CC(=O)O)C1C(C(=O)C(=O)Nc1c(C#N)cccc1[N+](=O)[O-])[N+](=O)[O-] (centres undefined) | > 100 | > 100 |  | > 100 | > 100 | > 100 | > 100 | > 100 | > 100 | > 100 | > 100 |  |  | 
9 | CCN(CC)CCC(=O)N1CCc2c([nH]c3ccccc23)C1c1cccnc1 (centres undefined) | > 100 | > 100 | > 100 | > 100 | > 100 | > 100 | > 100 | > 100 | > 100 | > 100 | > 100 | > 100 | > 100 | 
10 | C[N+](C)(C)Cc1c(CC#N)[nH]c2ccccc12 | > 100 | > 100 | > 100 | > 100 |  | > 100 | > 100 | > 100 | > 100 | > 100 | > 100 | > 100 |  | 
11 | O=C(O)C(Cc1cnc[nH]1)N=Cc1nc(-c2ccccc2)oc1O (centres undefined) | > 100 | > 100 | > 100 | > 100 | > 100 | > 100 | > 100 | > 100 | > 100 | > 100 | > 100 | > 100 |  | 
12 | Nc1ccc(C(=O)NN2C(=O)C(Cl)C2c2ccc([N+](=O)[O-])cc2)cc1 (centres undefined) | 9.8 | 28.3 | 17.5 | 27.4 | 51.7 | 18.2 | 11.2 |  | 28 | 21.8 | 23.6 | 3.21 |  | 
13 | O=C1SC(c2ccccc2)(c2ccccc2)c2ccccc21 | > 100 | > 100 | > 100 | > 100 | > 100 | > 100 | 94.4 | > 100 | > 100 | > 100 | > 100 | > 100 | > 100 | 
14 | CC(=O)OC1(C#N)CC2OC1C1C2N1C(=O)OC(C)(C)C (centres undefined) | > 100 |  |  | > 100 | > 100 | > 100 | > 100 | > 100 | > 100 | > 100 | > 100 | > 100 |  | 
15 | Cc1cc(Cl)ccc1NC(=O)CC1SC(N)=NC1=O (centres undefined) | > 100 | > 100 | > 100 | > 100 |  | > 100 | > 100 |  | > 100 | > 100 | > 100 | > 100 | > 100 | > 100
16 | Cc1nc2c(n1CCC(C)C)C(=O)c1ccccc1C2=O | 76.2 | 67.3 | 29.4 | > 100 | > 100 | > 100 |  | 36.4 | 28.5 | > 100 | > 100 | 55.9 |  | 
17 | Cc1cc(NS(=O)(=O)c2ccc(NC(=O)c3cccc4cc5ccccc5nc34)cc2)no1 | 48.4 | 59.1 | 32.4 | 75.1 | 69.6 | 31.5 | 49.2 | 33.6 | 74.3 | 52.1 | 35.7 | 33.8 |  | 37.5
